According to patent publication US9446039B2, “Aminoheteroaryl compounds as MTH1 inhibitors” (CEMM—FORSCHUNGSZENTRUM FÜR MOLEKULARE MEDIZIN GMBH, priority 2012, dated 2016):

How the values were obtained:
Assay type in all cases: binding
[1] = molecular target: SW480 colon carcinoma cells lysate proteins (Homo sapiens, UniProt Q13576); conditions: PreyGene IQGAP2
[2] = molecular target: SW480 colon carcinoma cells lysate proteins (Homo sapiens, UniProt Q71UM5); conditions: PreyGene RPS27L; SW480 cells
[3] = molecular target: T1, SW480 colon carcinoma cells lysate proteins (Homo sapiens, UniProt P16949); conditions: PreyGene STMN1
T1 sequence (P16949 1-149): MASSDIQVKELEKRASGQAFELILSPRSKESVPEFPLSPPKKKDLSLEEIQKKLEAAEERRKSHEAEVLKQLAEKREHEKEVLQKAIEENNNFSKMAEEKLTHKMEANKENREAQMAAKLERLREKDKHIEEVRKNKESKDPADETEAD

[4] = molecular target: T2, SW480 colon carcinoma cells lysate proteins (Homo sapiens, UniProt P41250); conditions: PreyGene GARS
T2 sequence (P41250 37-739): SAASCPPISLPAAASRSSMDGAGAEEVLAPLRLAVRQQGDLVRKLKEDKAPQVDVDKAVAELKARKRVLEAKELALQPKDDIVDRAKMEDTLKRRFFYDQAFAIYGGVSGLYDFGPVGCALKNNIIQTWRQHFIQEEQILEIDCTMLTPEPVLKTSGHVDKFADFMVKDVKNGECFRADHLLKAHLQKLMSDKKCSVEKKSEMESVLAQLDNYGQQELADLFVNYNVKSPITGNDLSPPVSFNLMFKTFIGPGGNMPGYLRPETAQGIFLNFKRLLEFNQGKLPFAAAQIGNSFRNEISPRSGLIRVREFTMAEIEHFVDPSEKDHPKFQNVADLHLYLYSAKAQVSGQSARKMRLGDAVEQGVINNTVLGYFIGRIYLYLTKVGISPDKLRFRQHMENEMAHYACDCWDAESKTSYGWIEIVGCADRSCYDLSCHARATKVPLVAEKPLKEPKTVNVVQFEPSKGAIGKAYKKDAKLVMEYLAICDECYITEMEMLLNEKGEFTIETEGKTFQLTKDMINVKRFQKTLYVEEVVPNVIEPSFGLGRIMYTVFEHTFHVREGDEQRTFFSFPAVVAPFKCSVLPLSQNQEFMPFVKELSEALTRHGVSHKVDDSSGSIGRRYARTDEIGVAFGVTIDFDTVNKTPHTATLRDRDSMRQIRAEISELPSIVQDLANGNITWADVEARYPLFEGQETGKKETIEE

[5] = molecular target: SW480 colon carcinoma cells lysate proteins (Homo sapiens, UniProt Q09666); conditions: PreyGene AHNAK; SW480 cells
[6] = molecular target: SW480 colon carcinoma cells lysate proteins (Homo sapiens, UniProt P83731); conditions: PreyGene RPL24; SW480 cells
[7] = molecular target: SW480 colon carcinoma cells lysate proteins (Homo sapiens, UniProt P06733); conditions: PreyGene ENO1
[8] = molecular target: T3, SW480 colon carcinoma cells lysate proteins (Homo sapiens, UniProt P14174); conditions: PreyGene MIF
T3 sequence (P14174 1-115): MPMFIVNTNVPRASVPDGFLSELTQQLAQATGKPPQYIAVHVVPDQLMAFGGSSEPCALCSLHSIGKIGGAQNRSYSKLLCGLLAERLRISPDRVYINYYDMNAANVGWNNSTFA

[9] = molecular target: SW480 colon carcinoma cells lysate proteins (Homo sapiens, UniProt Q16555); conditions: PreyGene DPYSL2
[10] = molecular target: SW480 colon carcinoma cells lysate proteins (Homo sapiens, UniProt P07355); conditions: PreyGene ANXA2
Sequence of SW480 colon carcinoma cells lysate proteins (Homo sapiens, UniProt P07355) (P07355 whole entry): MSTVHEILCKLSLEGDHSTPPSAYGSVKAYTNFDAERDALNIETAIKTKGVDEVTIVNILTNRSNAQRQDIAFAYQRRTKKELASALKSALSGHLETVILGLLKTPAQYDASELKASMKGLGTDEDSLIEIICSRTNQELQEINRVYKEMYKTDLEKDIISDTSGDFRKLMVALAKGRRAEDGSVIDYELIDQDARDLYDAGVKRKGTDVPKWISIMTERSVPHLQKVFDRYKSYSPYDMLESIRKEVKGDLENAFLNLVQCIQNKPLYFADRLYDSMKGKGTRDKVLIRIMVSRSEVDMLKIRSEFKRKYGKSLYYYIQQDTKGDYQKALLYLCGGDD

Sequence of SW480 colon carcinoma cells lysate proteins (Homo sapiens, UniProt P06733) (P06733 whole entry): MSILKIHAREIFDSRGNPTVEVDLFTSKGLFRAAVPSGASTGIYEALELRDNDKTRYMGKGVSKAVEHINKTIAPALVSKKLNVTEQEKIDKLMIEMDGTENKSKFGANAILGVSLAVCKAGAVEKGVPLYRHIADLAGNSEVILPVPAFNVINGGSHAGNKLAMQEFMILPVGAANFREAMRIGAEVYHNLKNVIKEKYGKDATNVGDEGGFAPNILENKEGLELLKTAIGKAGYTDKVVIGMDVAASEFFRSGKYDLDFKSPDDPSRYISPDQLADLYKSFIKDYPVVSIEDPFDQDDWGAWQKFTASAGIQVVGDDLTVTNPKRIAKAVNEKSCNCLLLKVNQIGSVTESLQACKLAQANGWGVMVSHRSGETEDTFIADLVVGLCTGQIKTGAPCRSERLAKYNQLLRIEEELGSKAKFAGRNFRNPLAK
Sequence of SW480 colon carcinoma cells lysate proteins (Homo sapiens, UniProt Q13576) (Q13576 whole entry): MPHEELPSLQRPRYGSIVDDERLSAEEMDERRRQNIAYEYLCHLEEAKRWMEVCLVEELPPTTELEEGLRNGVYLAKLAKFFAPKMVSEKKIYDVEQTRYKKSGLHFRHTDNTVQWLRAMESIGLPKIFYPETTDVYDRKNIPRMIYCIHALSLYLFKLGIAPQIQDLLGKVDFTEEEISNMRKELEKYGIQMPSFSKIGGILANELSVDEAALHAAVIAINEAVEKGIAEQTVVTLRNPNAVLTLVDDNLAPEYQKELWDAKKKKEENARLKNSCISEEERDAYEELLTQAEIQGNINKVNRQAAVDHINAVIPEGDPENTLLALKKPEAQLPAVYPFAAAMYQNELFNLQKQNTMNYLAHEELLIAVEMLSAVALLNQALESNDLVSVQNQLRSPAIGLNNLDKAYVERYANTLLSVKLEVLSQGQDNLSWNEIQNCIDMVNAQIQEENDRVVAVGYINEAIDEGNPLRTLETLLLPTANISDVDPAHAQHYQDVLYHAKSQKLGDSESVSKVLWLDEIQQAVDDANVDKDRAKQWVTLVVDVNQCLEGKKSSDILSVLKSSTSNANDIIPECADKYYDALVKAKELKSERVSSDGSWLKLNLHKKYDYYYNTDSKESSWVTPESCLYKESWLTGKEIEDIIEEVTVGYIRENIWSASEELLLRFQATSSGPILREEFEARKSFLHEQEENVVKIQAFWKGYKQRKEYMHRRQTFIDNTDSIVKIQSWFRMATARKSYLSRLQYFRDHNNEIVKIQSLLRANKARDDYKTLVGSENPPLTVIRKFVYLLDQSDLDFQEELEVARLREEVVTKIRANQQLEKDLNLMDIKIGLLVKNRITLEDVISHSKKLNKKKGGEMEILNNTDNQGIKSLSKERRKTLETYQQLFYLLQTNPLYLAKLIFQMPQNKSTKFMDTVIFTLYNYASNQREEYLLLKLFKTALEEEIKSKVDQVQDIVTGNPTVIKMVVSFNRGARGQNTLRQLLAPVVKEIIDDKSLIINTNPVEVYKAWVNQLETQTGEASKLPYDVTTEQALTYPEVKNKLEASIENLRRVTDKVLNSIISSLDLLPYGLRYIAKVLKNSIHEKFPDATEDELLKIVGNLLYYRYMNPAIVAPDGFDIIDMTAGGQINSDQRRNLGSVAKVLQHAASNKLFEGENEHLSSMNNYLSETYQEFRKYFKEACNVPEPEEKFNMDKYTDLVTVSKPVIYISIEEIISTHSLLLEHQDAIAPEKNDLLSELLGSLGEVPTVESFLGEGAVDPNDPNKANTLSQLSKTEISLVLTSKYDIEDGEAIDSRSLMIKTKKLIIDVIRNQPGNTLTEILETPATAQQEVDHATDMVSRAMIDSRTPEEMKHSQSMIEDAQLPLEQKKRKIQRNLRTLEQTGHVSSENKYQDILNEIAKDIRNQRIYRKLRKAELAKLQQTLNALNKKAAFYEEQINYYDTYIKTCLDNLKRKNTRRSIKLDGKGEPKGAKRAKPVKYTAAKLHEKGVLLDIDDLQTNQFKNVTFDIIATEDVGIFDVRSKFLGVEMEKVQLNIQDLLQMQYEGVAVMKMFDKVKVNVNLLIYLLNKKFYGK

Structure (SMILES): C[C@H](Oc1cc(-c2cnn(C3CCNCC3)c2)cnc1N)c1c(Cl)ccc(F)c1Cl [(5)-crizotinib]
- AvgP [1]: 0.4584
- SC.Exp. 1-1 [1]: 9
- SC.Exp. 1-2 [1]: 9
- SC.Exp. 2-1 [1]: 0
- SC.Exp. 2-2 [1]: 0
- Sum (SC.Exp.) [1]: 18
- AvgP [2]: 0
- SC.Exp. 1-1 [2]: 0
- SC.Exp. 1-2 [2]: 1
- SC.Exp. 2-1 [2]: 0
- SC.Exp. 2-2 [2]: 0
- SC.Exp. Sum [2]: 1
- AvgP [3]: 0.4156
- SC.Exp. 1-1 [3]: 3
- SC.Exp. 1-2 [3]: 3
- SC.Exp. 2-1 [3]: 0
- SC.Exp. 2-2 [3]: 0
- Sum (SC.Exp.) [3]: 6
- AvgP [4]: 0.4818
- SC.Exp. 1-1 [4]: 6
- SC.Exp. 1-2 [4]: 7
- SC.Exp. 2-1 [4]: 0
- SC.Exp. 2-2 [4]: 0
- Sum (SC.Exp.) [4]: 13
- AvgP [5]: 0
- SC.Exp. 1-1 [5]: 5
- SC.Exp. 1-2 [5]: 6
- SC.Exp. 2-1 [5]: 6
- SC.Exp. 2-2 [5]: 6
- SC.Exp. Sum [5]: 23
- AvgP [6]: 0
- SC.Exp. 1-1 [6]: 4
- SC.Exp. 1-2 [6]: 4
- SC.Exp. 2-1 [6]: 3
- SC.Exp. 2-2 [6]: 4
- SC.Exp. Sum [6]: 15
- AvgP [7]: 0.2209
- SC.Exp. 1-1 [7]: 29
- SC.Exp. 1-2 [7]: 28
- SC.Exp. 2-1 [7]: 7
- SC.Exp. 2-2 [7]: 7
- Sum (SC.Exp.) [7]: 71
- AvgP [8]: 0.3362
- SC.Exp. 1-1 [8]: 0
- SC.Exp. 1-2 [8]: 1
- SC.Exp. 2-1 [8]: 2
- SC.Exp. 2-2 [8]: 2
- Sum (SC.Exp.) [8]: 5
- AvgP [9]: 0.3678
- SC.Exp. 1-1 [9]: 6
- SC.Exp. 1-2 [9]: 4
- SC.Exp. 2-1 [9]: 0
- SC.Exp. 2-2 [9]: 0
- Sum (SC.Exp.) [9]: 10
- AvgP [10]: 0.41
- SC.Exp. 1-1 [10]: 13
- SC.Exp. 1-2 [10]: 13
- SC.Exp. 2-1 [10]: 0
- SC.Exp. 2-2 [10]: 0
- Sum (SC.Exp.) [10]: 26
